Assay results published in patent US20180155344A1, “TRICYCLIC PIPERIDINE COMPOUNDS” (ACTELION PHARMACEUTICALS LTD, priority 2015, published 2018).

Target: T1, human TPH1 (Homo sapiens, UniProt P17752)
T1 sequence (P17752 1-444): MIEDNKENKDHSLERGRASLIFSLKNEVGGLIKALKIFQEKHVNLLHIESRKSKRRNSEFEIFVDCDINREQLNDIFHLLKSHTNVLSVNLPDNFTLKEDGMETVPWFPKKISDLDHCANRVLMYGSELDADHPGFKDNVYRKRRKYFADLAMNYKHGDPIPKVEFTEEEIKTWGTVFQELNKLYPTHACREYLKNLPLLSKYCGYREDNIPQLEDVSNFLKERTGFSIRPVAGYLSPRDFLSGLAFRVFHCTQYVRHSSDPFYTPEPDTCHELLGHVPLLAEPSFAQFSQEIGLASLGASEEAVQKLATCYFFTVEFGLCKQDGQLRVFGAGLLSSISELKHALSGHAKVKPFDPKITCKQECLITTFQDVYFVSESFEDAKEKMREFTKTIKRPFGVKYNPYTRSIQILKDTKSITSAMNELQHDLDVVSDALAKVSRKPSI
Assay: biochemical
Procedure, shortened: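 Inhibition is derived from 5-hydroxy-L-tryptophan fluorescence (540 nm emission, 300 nm excitation) after perchloric acid stop, relative to DMSO vehicle. Recombinant full-length human enzyme (40-80 nM) reacts with 40 μM tryptophan plus 100 μM methyltetrahydropterin, pH 7.6 Tris/DTT/catalase, 15° C, 60 min.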

| Structure (SMILES) | IC50 |
| --- | --- |
| O=C(COc1ccc(CN2CCOCC2)cc1Cl)N1CCc2nc3cc(C(F)(F)F)ccn3c2C1c1nc2ccccc2s1 (stereo not shown) [Example 3.44.2, 1-(1-(benzo[d]thiazol-2-yl)-7-(trifluoromethyl)-3,4-dihydroimidazo[1,2-a:5,4-c′]dipyridin-2(1H)-yl)-2-(2-chloro-4-(morpholinomethyl)phenoxy)ethan-1-one] | 23 nM |
| Cc1cc(C2c3c(nc4cc(C(F)(F)F)ccn34)CCN2C(=O)COc2ccc3ccccc3c2)no1 (stereo not shown) [Example 3.45.1, 1-(1-(5-methylisoxazol-3-yl)-7-(trifluoromethyl)-3,4-dihydroimidazo[1,2-a:5,4-c′]dipyridin-2(1H)-yl)-2-(naphthalen-2-yloxy)ethan-1-one] | 349 nM |
| O=C(COc1ccc2ccccc2c1)N1CCc2nc3cc(C(F)(F)F)ccn3c2C1c1cc(-c2ccc(F)cc2)on1 (stereo not shown) [Example 3.47.1, 1-(1-(5-(4-fluorophenyl)isoxazol-3-yl)-7-(trifluoromethyl)-3,4-dihydroimidazo[1,2-a:5,4-c′]dipyridin-2(1H)-yl)-2-(naphthalen-2-yloxy)ethan-1-one] | 368 nM |
| O=C(COc1ccc(CN2CCOCC2)cc1Cl)N1CCc2nc3cc(C(F)(F)F)ccn3c2C1c1ncn2ccccc12 (stereo not shown) [Example 3.48.1, 2-(2-chloro-4-(morpholinomethyl)phenoxy)-1-(1-(imidazo[1,5-a]pyridin-1-yl)-7-(trifluoromethyl)-3,4-dihydroimidazo[1,2-a:5,4-c′]dipyridin-2(1H)-yl)ethan-1-one] | 214 nM |
| O=C(COc1ccc2ccccc2c1)N1CCc2nc3cc(C(F)(F)F)ccn3c2C1c1cc2cccnc2s1 (stereo not shown) [Example 3.49.1, 2-(naphthalen-2-yloxy)-1-(1-(thieno[2,3-b]pyridin-2-yl)-7-(trifluoromethyl)-3,4-dihydroimidazo[1,2-a:5,4-c′]dipyridin-2(1H)-yl)ethan-1-one] | 47 nM |
| Cc1ccc(C2c3c(nc4cc(C(F)(F)F)ccn34)CCN2C(=O)COc2ccc(CN3CCOCC3)cc2Cl)nc1 (stereo not shown) [Example 3.50.2, 2-(2-chloro-4-(morpholinomethyl)phenoxy)-1-(1-(5-methylpyridin-2-yl)-7-(trifluoromethyl)-3,4-dihydroimidazo[1,2-a:5,4-c′]dipyridin-2(1H)-yl)ethan-1-one] | 100 nM |
| Cc1ccc(C2c3c(nc4cc(C(F)(F)F)ccn34)CCN2C(=O)COc2cc(-c3ccccc3)nn2C)nc1 (stereo not shown) [Example 3.50.3, 2-((1-methyl-3-phenyl-1H-pyrazol-5-yl)oxy)-1-(1-(5-methylpyridin-2-yl)-7-(trifluoromethyl)-3,4-dihydroimidazo[1,2-a:5,4-c′]dipyridin-2(1H)-yl)ethan-1-one] | 468 nM |
| COc1ccc(C2c3c(nc4cc(C(F)(F)F)ccn34)CCN2C(=O)COc2ccc3ccccc3c2)nc1 (stereo not shown) [Example 3.52.1, 1-(1-(5-methoxypyridin-2-yl)-7-(trifluoromethyl)-3,4-dihydroimidazo[1,2-a:5,4-c′]dipyridin-2(1H)-yl)-2-(naphthalen-2-yloxy)ethan-1-one] | 90 nM |
| Cc1ncc(C2c3c(nc4cc(C(F)(F)F)ccn34)CCN2C(=O)COc2ccc3ccccc3c2)cn1 (stereo not shown) [Example 3.53.1, 1-(1-(2-methylpyrimidin-5-yl)-7-(trifluoromethyl)-3,4-dihydroimidazo[1,2-a:5,4-c′]dipyridin-2(1H)-yl)-2-(naphthalen-2-yloxy)ethan-1-one] | 161 nM |
| COc1ncc(C2c3c(nc4cc(C(F)(F)F)ccn34)CCN2C(=O)COc2ccc(CN3CCOCC3)cc2Cl)cn1 (stereo not shown) [Example 3.55.2, 2-(2-chloro-4-(morpholinomethyl)phenoxy)-1-(1-(2-methoxypyrimidin-5-yl)-7-(trifluoromethyl)-3,4-dihydroimidazo[1,2-a:5,4-c′]dipyridin-2(1H)-yl)ethan-1-one] | 266 nM |
| O=C(COc1ccc2ccccc2c1)N1CCc2nc3cc(C(F)(F)F)ccn3c2C1c1ccnc(Cl)c1 (stereo not shown) [Example 3.56.1, 1-(1-(2-chloropyridin-4-yl)-7-(trifluoromethyl)-3,4-dihydroimidazo[1,2-a:5,4-c′]dipyridin-2(1H)-yl)-2-(naphthalen-2-yloxy)ethan-1-one] | 195 nM |
| O=C(COc1ccc(CN2CCOCC2)cc1Cl)N1CCc2nc3cc(C(F)(F)F)ccn3c2C1c1ccnc(Cl)c1 (stereo not shown) [Example 3.56.2, 2-(2-chloro-4-(morpholinomethyl)phenoxy)-1-(1-(2-chloropyridin-4-yl)-7-(trifluoromethyl)-3,4-dihydroimidazo[1,2-a:5,4-c′]dipyridin-2(1H)-yl)ethan-1-one] | 295 nM |

Next, values leading:

| IC50 | Structure (SMILES) |
| --- | --- |
| 209 nM | O=C(COc1ccc2ccccc2c1)N1CCc2nc3cc(C(F)(F)F)ccn3c2C1c1ncc2ccccn12 (stereo not shown) [Example 3.43.2, 1-(1-(imidazo[1,5-a]pyridin-3-yl)-7-(trifluoromethyl)-3,4-dihydroimidazo[1,2-a:5,4-c′]dipyridin-2(1H)-yl)-2-(naphthalen-2-yloxy)ethan-1-one] |
| 76 nM | O=C(COc1ccc2ccccc2c1)N1CCc2nc3cc(C(F)(F)F)ccn3c2C1c1nc2ccccc2s1 (stereo not shown) [Example 3.44.1, 1-(1-(benzo[d]thiazol-2-yl)-7-(trifluoromethyl)-3,4-dihydroimidazo[1,2-a:5,4-c′]dipyridin-2(1H)-yl)-2-(naphthalen-2-yloxy)ethan-1-one] |
| 22 nM | O=C(COc1ccc(CN2CCOCC2)cc1Cl)N1CCc2nc3cc(C(F)(F)F)ccn3c2C1c1cc(-c2ccccc2)on1 (stereo not shown) [Example 3.46.1, 2-(2-chloro-4-(morpholinomethyl)phenoxy)-1-(1-(5-phenylisoxazol-3-yl)-7-(trifluoromethyl)-3,4-dihydroimidazo[1,2-a:5,4-c′]dipyridin-2(1H)-yl)ethan-1-one] |
| 206 nM | O=C(COc1ccc2ccccc2c1)N1CCc2nc3cc(C(F)(F)F)ccn3c2C1c1cc(-c2ccccc2)on1 (stereo not shown) [Example 3.46.2, 2-(naphthalen-2-yloxy)-1-(1-(5-phenylisoxazol-3-yl)-7-(trifluoromethyl)-3,4-dihydroimidazo[1,2-a:5,4-c′]dipyridin-2(1H)-yl)ethan-1-one] |
| 41 nM | O=C(COc1ccc(CN2CCOCC2)cc1Cl)N1CCc2nc3cc(C(F)(F)F)ccn3c2C1c1cc(-c2ccc(F)cc2)on1 (stereo not shown) [Example 3.47.2, 2-(2-chloro-4-(morpholinomethyl)phenoxy)-1-(1-(5-(4-fluorophenyl)isoxazol-3-yl)-7-(trifluoromethyl)-3,4-dihydroimidazo[1,2-a:5,4-c′]dipyridin-2(1H)-yl)ethan-1-one] |
| 13 nM | O=C(COc1ccc(CN2CCOCC2)cc1Cl)N1CCc2nc3cc(C(F)(F)F)ccn3c2C1c1cc2cccnc2s1 (stereo not shown) [Example 3.49.2, 2-(2-chloro-4-(morpholinomethyl)phenoxy)-1-(1-(thieno[2,3-b]pyridin-2-yl)-7-(trifluoromethyl)-3,4-dihydroimidazo[1,2-a:5,4-c′]dipyridin-2(1H)-yl)ethan-1-one] |
| 58 nM | Cc1ccc(C2c3c(nc4cc(C(F)(F)F)ccn34)CCN2C(=O)COc2ccc3ccccc3c2)nc1 (stereo not shown) [Example 3.50.1, 1-(1-(5-methylpyridin-2-yl)-7-(trifluoromethyl)-3,4-dihydroimidazo[1,2-a:5,4-c′]dipyridin-2(1H)-yl)-2-(naphthalen-2-yloxy)ethan-1-one] |
| 87 nM | Cc1noc(C)c1C1c2c(nc3cc(C(F)(F)F)ccn23)CCN1C(=O)COc1ccc2ccccc2c1 (stereo not shown) [Example 3.51.1, 1-(1-(3,5-dimethylisoxazol-4-yl)-7-(trifluoromethyl)-3,4-dihydroimidazo[1,2-a:5,4-c′]dipyridin-2(1H)-yl)-2-(naphthalen-2-yloxy)ethan-1-one] |
| 217 nM | Cc1noc(C)c1C1c2c(nc3cc(C(F)(F)F)ccn23)CCN1C(=O)COc1ccc(CN2CCOCC2)cc1Cl (stereo not shown) [Example 3.51.2, 2-(2-chloro-4-(morpholinomethyl)phenoxy)-1-(1-(3,5-dimethylisoxazol-4-yl)-7-(trifluoromethyl)-3,4-dihydroimidazo[1,2-a:5,4-c′]dipyridin-2(1H)-yl)ethan-1-one] |
| 74 nM | COc1ccc(C2c3c(nc4cc(C(F)(F)F)ccn34)CCN2C(=O)COc2ccc(CN3CCOCC3)cc2Cl)nc1 (stereo not shown) [Example 3.52.2, 2-(2-chloro-4-(morpholinomethyl)phenoxy)-1-(1-(5-methoxypyridin-2-yl)-7-(trifluoromethyl)-3,4-dihydroimidazo[1,2-a:5,4-c′]dipyridin-2(1H)-yl)ethan-1-one] |
| 203 nM | CCc1ncc(C2c3c(nc4cc(C(F)(F)F)ccn34)CCN2C(=O)COc2ccc3ccccc3c2)cn1 (stereo not shown) [Example 3.54.1, 1-(1-(2-ethylpyrimidin-5-yl)-7-(trifluoromethyl)-3,4-dihydroimidazo[1,2-a:5,4-c′]dipyridin-2(1H)-yl)-2-(naphthalen-2-yloxy)ethan-1-one] |
| 415 nM | CCc1ncc(C2c3c(nc4cc(C(F)(F)F)ccn34)CCN2C(=O)COc2ccc(CN3CCOCC3)cc2Cl)cn1 (stereo not shown) [Example 3.54.2, 2-(2-chloro-4-(morpholinomethyl)phenoxy)-1-(1-(2-ethylpyrimidin-5-yl)-7-(trifluoromethyl)-3,4-dihydroimidazo[1,2-a:5,4-c′]dipyridin-2(1H)-yl)ethan-1-one] |
| 67 nM | COc1ncc(C2c3c(nc4cc(C(F)(F)F)ccn34)CCN2C(=O)COc2ccc3ccccc3c2)cn1 (stereo not shown) [Example 3.55.1, 1-(1-(2-methoxypyrimidin-5-yl)-7-(trifluoromethyl)-3,4-dihydroimidazo[1,2-a:5,4-c′]dipyridin-2(1H)-yl)-2-(naphthalen-2-yloxy)ethan-1-one] |
